According to patent US20260207483A1, “PHARMACEUTICAL CO[…] FOR THE TREATMENT OF OPHTHALMIC CONDITIONS” (Adtech Pharma, Inc., priority 2022, published 2026):

How the values were obtained:
[1] = Solubility of nabilone in water and common solvents (USP classification); assay type: physicochemical
Excerpt: Nabilone is difficult to solubilize in most solvents such that preparing a liquid composition comprising nabilone is very challenging. […] These solvents are not suitable for use in human pharmaceutical formulations.

[2] = Solubility of nabilone in sesame oil; assay type: physicochemical; settings: 5% w/w of nabilone in sesame oil; for Nabilone recovered from oil phase (w/w in mg/mL): 250 mg/g added
Excerpt: It is also challenging to solubilize nabilone in pharmaceutically acceptable oils, even at elevated temperatures.

CCCCCCC(C)(C)c1cc(O)c2c(c1)OC(C)(C)C1CCC(=O)CC21 (centres unmarked) [Nabilone]
USP Classification of solubility ([1]; 1,4-Dioxane): Freely Soluble
USP Classification of solubility ([1]; 2-Methyltetrahydrofuran): Freely Soluble
USP Classification of solubility ([1]; Acetone): Freely Soluble
USP Classification of solubility ([1]; Dichloromethane): Freely Soluble
USP Classification of solubility ([1]; Dimethoxyethane): Freely Soluble
USP Classification of solubility ([1]; Dimethyl sulfoxide): Freely Soluble
USP Classification of solubility ([1]; Dimethylformamide): Freely Soluble
USP Classification of solubility ([1]; Methyl ethyl ketone): Freely Soluble
USP Classification of solubility ([1]; Tetrahydrofuran): Freely Soluble
USP Classification of solubility ([1]; p-Xylene): Freely Soluble
Solubility in water (USP classification) ([1]; water at any pH): insoluble
Observation After Centrifuge (14000 rpm, 10 minutes) ([2]; not heated): Clear solution
Observation Before Centrifuge ([2]; not heated): Turbid
Nabilone recovered from oil phase (w/w in mg/mL) ([2]; not heated): 3.9 mg/mL
Observation After Centrifuge (14000 rpm, 10 minutes) ([2]; heated to 90° C. for 3 hours): Clear solution
Observation Before Centrifuge ([2]; heated to 90° C. for 3 hours): Turbid
Nabilone recovered from oil phase (w/w in mg/mL) ([2]; heated to 90° C. for 3 hours): 6.3 mg/mL
